Measured values as given in US12552800B2, “Compounds for diagnosis” (AC IMMUNE SA, priority 2020, dated 2026).
Entries after “also recorded” stand apart in the source; their conditions may differ. Where two headings read alike, the source gives them in different places.

Assays:
[1] = target: T1, Abeta pathological aggregates (Homo sapiens, UniProt P05067); assay: Radiobinding competition assay against [^3H]-Abeta-Ref on AD brain homogenates (example compound 1); format: binding
T1 construct: Abeta pathological aggregates present in the human AD brain homogenates; from tissue; host or cells: human AD donor brain, Triton/sucrose-insoluble 100,000 x g pellet
Procedure: The procedure was adapted from the protocol described in Bagchi et al., 2013. Frozen tissue blocks from AD donors were thawed on ice and homogenized in high salt buffer (50 mM Tris-HCl pH 7.5, 0.75M NaCl, 5 mM EDTA) supplemented with protease inhibitors (Complete; Roche 11697498001) at 4° C. using a glass Dounce homogenizer. The homogenate was centrifuged at 100,000×g (38,000 RPM) in an ultracentrifuge (Beckman, XL100K) for one hour at 4° C. using a pre-cooled 70.1 rotor (Beckman, 342184). Pellets were resuspended in high salt buffer supplemented with 1% Triton X-100 and homogenized at 4° C. using a glass Dounce homogenizer. The homogenates were centrifuged again at 100,000×g (38,000 RPM, 70.1 rotor) for one hour at 4° C. Pellets were resuspended in high salt buffer supplemented with 1% Triton X-100 and 1 M sucrose and homogenized at 4° C. using a glass Dounce homogenizer. The homogenates were centrifuged at 100,000×g (38,000 RPM, 70.1 rotor) for one hour at 4° C. […]
A fixed concentration of AD insoluble fraction was incubated with a tritiated reference Abeta ligand ([^3H]-Abeta-Ref) at 10 nM and increasing concentrations of non-radiolabelled example compound 1 in the range of […] to 2 μM for two hours at RT. […] The filters were analyzed on a Microbeta2 scintillation counter (PerkinElmer). […]

[2] = target: T2, PD brain-derived a-syn aggregates (Homo sapiens, UniProt P37840); assay: Micro-radiobinding competition assay against [^3H]-a-syn-Ref; format: binding
T2 construct: from tissue; host or cells: human PD donor brain, sarkosyl-insoluble 100,000 x g pellet
Procedure: The procedure was adapted from the protocol described in Spillantini et al., 1998. Frozen tissue blocks from PD donors were thawed on ice and homogenized using a glass dounce homogenizer. The homogenate was then centrifuged at 11,000×g (12,700 RPM) in an ultracentrifuge (Beckman, XL100K) for 20 minutes at 4° C. using a pre-cooled 70.1 rotor (Beckman, 342184). Pellets were resuspended in extraction buffer [10 mM Tris-HCl pH 7.4, 10% sucrose, […], 1% protease inhibitor (Calbiochem 539131), 1 mM EGTA, 1% phosphatase inhibitor (Sigma P5726 and P0044)] and centrifuged at 15,000×g (14,800 RPM, a 70.1 Ti rotor) for 20 minutes at 4° C. Pellets were discarded and sarkosyl (20% stock solution, Sigma L7414) was added to the supernatants to a final concentration of 1% at room temperature for one hour. This solution was then centrifuged at 100,000×g (38,000 RPM, 70.1 Ti rotor) for one hour at 4° C. Pellets containing enriched a-syn aggregates were resuspended in PBS and stored at −80° C. until use.
PD brain-derived a-syn aggregates were spotted onto microarray slides. The slides were incubated with the tritiated reference ligand, [^3H]-a-syn-Ref (as described in WO2017/153601) at 20 nM and the example compounds of this invention (non-radiolabelled) either at 1 μM or at increasing concentrations in the range of 50 pM to 2 μM. After incubation, slides were washed and exposed to a phosphor storage screen (GE healthcare, BAS-IP TR 2025). Following exposure, phosphor storage screens were scanned with a laser imaging system (Typhoon FLA 7000) to readout the signal from the radiobinding experiments described above. Quantification of the signal was performed using the ImageJ software package. […] All measurements were performed with at least two technical replicates.
Example compounds were assessed for their potency to compete with the binding of [3H] radiolabelled reference ligand to PD patient brain-derived a-syn aggregates. Results of the micro-radiobinding competition assay for the example compounds tested are shown in Table 5 as: % competition at 1 μM and Ki value. All measurements were performed on the same PD brain-derived a-syn aggregates.

[3] = target: T3, a-syn pathology (Homo sapiens, UniProt P37840); assay: Autoradiography of Example-1 [^3H-1] in brain sections from PD, PDD, MSA, LBV and NDC donors; format: binding; details: 10 nM
T3 construct: performed on frozen human brain sections from different a-synucleinopathy cases; from tissue; host or cells: frozen human brain sections (PD, PDD, MSA, DLB, LBV; NDC as controls)
Procedure: Frozen human brain sections from one PD case, two PDD cases, two MSA cases, one LBV case and three non-demented control (NDC) cases were first briefly fixed for 15 minutes at 4° C. with 4% paraformaldehyde (Sigma, 252549) and washed three times for five minutes with PBS (Dulbecco's phosphate buffered saline, Sigma) at RT. All slides were then equilibrated for 20 minutes in 50 mM Tris-HCl pH 7.4 buffer prior to use in the experiment. Each brain section was incubated with a fixed concentration (10 nM) of tritiated example compound 1 (Example-1 [^3H-1]) in Tris-HCl buffer for two hours at RT (Total binding, ‘Total’). […] The slides were washed and then exposed and scanned in a real-time autoradiography system (BeaQuant instrument, ai4R).

[4] = target: T2, PD brain-derived a-syn aggregates; assay: Saturation binding of Example-1 [^3H-1] by micro-radiobinding; details: head-to-head with [3H]-a-syn-Ref
Procedure: PD brain-derived a-syn aggregates were spotted onto microarray slides. The slides were incubated with Example-1 [^3H-1] or [3H]-a-syn-Ref at increasing concentrations in the range of 300 pM to 150 nM. After incubation, slides were washed and exposed to a phosphor storage screen (GE healthcare, BAS-IP TR 2025). Following exposure, phosphor storage screens were scanned with a laser imaging system (Typhoon FLA 7000) to readout the signal from the radiobinding experiments described above. Quantification of the signal was performed using the ImageJ software package.

[5] = target: T4, a-syn aggregates (Lewy bodies and Lewy neurites) (Homo sapiens, UniProt P37840); assay: High resolution micro-autoradiography of Example-1 [^3H-1] in a-synucleinopathy tissues; format: binding; details: 60 nM; PD, PDD, MSA, DLB, LBV tissue
T4 construct: performed on frozen human brain sections from different a-synucleinopathy cases; from tissue; host or cells: frozen human brain sections (PD, PDD, MSA, DLB, LBV; NDC as controls)
Procedure: (§1) The protocol was adapted from Marquie et al., 2015. Sections were incubated with tritiated example compound 1 (Example-1 [3H-1]) or a reference Tau ligand ([3H]-Tau-Ref at 60 nM for one hour at room temperature (RT). Sections were then washed as follows: One time in ice-cold 50 mM Tris-HCl pH 7.4 buffer for one minute, two times in 70% ice-cold ethanol for one minute, one time in ice-cold 50 mM Tris-HCl pH 7.4 buffer for one minute and finally rinsed briefly in ice-cold distilled water. Sections were subsequently dried and then exposed to Ilford Nuclear Emulsion Type K5 (Agar Scientific, AGP9281) in a light-proof slide storage box. After five days, the sections were developed by immersing them successively in the following solutions: 1.) Ilford Phenisol Developer (1:5 dilution in H2O, Agar Scientific, AGP9106), 2.) Ilfostop solution (1:20 dilution in H2O, Agar Scientific, AGP9104), 3.) Ilford Hypam Fixer (1:5 dilution in H2O, Agar Scientific, AGP9183) and finally rinsed with H2O.
When indicated, immunostaining was also performed on the same section. For image acquisition, sections were mounted using ProLong Gold Antifade reagent (Invitrogen P36930) and imaged on a Panoramic150 Slide Scanner (3DHistech) with a 20× objective capturing separately brightfield and fluorescent images. […]

[6] = target: T5, pathological a-synuclein aggregates (Homo sapiens, UniProt P37840); assay: Autoradiography of Example-1 [^3H-1] in brain sections from PD, PDD and NDC donors; format: binding; design: Frozen human brain sections from one familial PD case; from tissue; host or cells: frozen human brain sections: familial PD (SNCA G51D), PDD or idiopathic PD, MSA, NDC controls; details: PDD brain tissue, autoradiography
Procedure: (§2) Frozen human brain sections from one familial PD case (a-synuclein [SNCA] gene G51 D missense mutation), labelled as SNCA (G51 D), one PDD case and two non-demented control (NDC) cases were first briefly fixed for 15 minutes at 4° C. with 4% paraformaldehyde (Sigma, 252549) and washed three times for five minutes with PBS (Dulbecco's phosphate buffered saline, Sigma) at RT. All slides were then equilibrated for 20 minutes in 50 mM Tris-HCl pH 7.4 buffer prior to use in the experiment. Each brain section was incubated with a fixed concentration (10 nM) of tritiated example compound 1 (Example-1 [^3H-1]) or a reference a-syn ligand ([3H]-a-syn-Ref), or increasing concentrations of Example-1 [^3H-1] in the range of 1.25 nM to 80 nM of tritiated compound in Tris-HCl buffer for two hours at RT (Total binding, ‘−’). To determine non-specific (NS) binding Example-1 [^3H-1] or [3H]-a-syn-Ref was mixed with 1 μM of non-radiolabelled compound (Example 1 or a-syn-Ref respectively, self-block, ‘+’). The slides were washed and placed under Phosphor imaging screens (GE healthcare, BAS-IP TR 2025) in imaging cassettes. Imaging screens were scanned using a laser imaging system (Typhoon, FLA 7000) and resulting images were analyzed using the ImageJ software package.

[7] = target: T5, pathological a-synuclein aggregates; assay: as above; format: binding
Procedure: as §2

[8] = target: T6, pathological a-synuclein aggregates (Homo sapiens, UniProt P37840, G51D); assay: as above; format: binding; details: Genetic PD (SNCA (G51D)) brain tissue, autoradiography
T6 construct: Frozen human brain sections from one familial PD case; from tissue; host or cells: frozen human brain sections: familial PD (SNCA G51D), PDD or idiopathic PD, MSA, NDC controls
Procedure: as §2

[9] = system: Tau aggregates; assay: Micro-autoradiography of Example-1 [^3H-1] on AD tissue; format: binding, human; details: AD brain tissue, compared to [3H]-Tau-Ref
Procedure: as §1, with “H2O. […]” for “H2O.”

[10] = target: T7, TAR DNA-binding protein 43 (TDP-43) aggregates (Homo sapiens, UniProt Q13148); assay: Micro-autoradiography of Example-1 [^3H-1] on FTLD-TDP type C tissue; details: FTLD-TDP Type C brain tissue
T7 construct: present in Frontotemporal Lobar Degeneration TDP (FTLD-TDP) Type C brain tissue; from tissue; host or cells: FTLD-TDP type C brain tissue sections
Procedure: as §1, with “H2O. […]” for “H2O.”

T7 sequence (Q13148 whole entry): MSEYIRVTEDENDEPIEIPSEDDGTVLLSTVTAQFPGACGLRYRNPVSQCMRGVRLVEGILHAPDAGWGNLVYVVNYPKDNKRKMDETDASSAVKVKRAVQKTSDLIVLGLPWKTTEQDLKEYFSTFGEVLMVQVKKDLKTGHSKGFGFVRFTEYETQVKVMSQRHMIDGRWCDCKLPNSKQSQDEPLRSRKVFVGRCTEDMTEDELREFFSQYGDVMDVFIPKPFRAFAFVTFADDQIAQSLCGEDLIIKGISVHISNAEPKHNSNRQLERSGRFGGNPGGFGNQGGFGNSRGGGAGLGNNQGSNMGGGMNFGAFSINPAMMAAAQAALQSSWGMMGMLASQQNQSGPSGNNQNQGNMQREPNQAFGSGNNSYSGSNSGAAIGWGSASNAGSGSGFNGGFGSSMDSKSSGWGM
T1 sequence (P05067 672-713 limits assumed): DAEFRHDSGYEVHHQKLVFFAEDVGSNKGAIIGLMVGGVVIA

## O=C1c2cn(-c3ccc(N4CC[C@@H](F)C4)nc3)nc2CN1c1cccnc1 [Example 1]
[1]; displacement of [^3H]-Abeta-Ref at 10 nM, AD brain-derived homogenates
  Ki: 330 nM
[1]; in words
  selectivity for a-syn over Abeta pathological aggregates: good selectivity for a-syn over Abeta
[2]; displacement of [^3H]-a-syn-Ref, average of two independent experiments
  Ki: 30 nM
[2]; in words
  binding to PD brain-derived a-syn aggregates: good binding
[2]; over [^3H]-a-syn-Ref at 20 nM, example compound at 1 μM
  Competition at 1 μM (%): 94%

## [3H]c1cncc(N2Cc3nn(-c4cnc(N5CC[C@@H](F)C5)c([3H])c4)cc3C2=O)c1 [Example-1 [^3H-1]]
[3]
  autoradiographic signal in non-demented control cases: weak
[3]; MSA, LBV, PDD cases
  target engagement in a-synucleinopathy tissues: target engagement
[4]
  binding site occupancy: high and improved binding site occupancy
[5]
  target engagement on Lewy bodies and Lewy neurites (silver grains): Accumulation of silver grains on Lewy bodies and Lewy neurites; also recorded: strong target engagement
[6]
  B max: 1104
  Kd: 11 nM
[7]; PDD and genetic PD tissue, range of both, read-out: dissociation constant (Kd)
  Kd: 11 to 13 nM
[7]; autoradiography, 10 nM
  binding in non-diseased tissue (NDC): very weak binding
[7]; autoradiography, PDD and PD tissue, compared to [3H]-a-syn-Ref at 10 nM
  specific binding in a-synucleinopathy brain sections: improved total and excellent specific binding
[8]
  B max: 3004
  Kd: 13 nM
[9]
  target engagement on Tau aggregates: No accumulation of silver grains on Tau tangles; also recorded: did not display specific target engagement
[10]
  binding to TDP-43 aggregates: No accumulation of silver grains on TDP-43 aggregates; also recorded: very weak to no binding
